Test systems include MCF7 breast; SR leukemia; RXF 393 renal; KM12 colon; CCRF-CEM leukemia; UACC-257 melanoma; COLO 205 colon; TK-10 renal; HCT-116 colon; CAKI-1 renal.
Assay in all cases: NCI tumour cell line growth inhibition, 48 h

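Interpolation was linear, between the two tested concentrations surrounding the appropriate level; five concentrations were tested over 48 hours in 96-well plates. GI50: concentration for 50% inhibition of growth. TGI marks complete inhibition of growth.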

`C=C1C(=O)O[C@@H]2/C=C(/C)[C@@H](OC(C)=O)C/C=C(\C)C(O)[C@@H](OC(=O)/C(C)=C\C)C12` (stereo not given in full): the TGI in the assay with MCF7 breast is over 100 µM; in the assay with SR leukemia it was 55.6 µM; in the assay with RXF 393 renal, 79.4 µM; with KM12 colon, over 100 µM; in the assay on CCRF-CEM leukemia, 57.2 µM; in the assay on UACC-257 melanoma, over 100 µM. Besides, the TGI with COLO 205 colon is 32 µM; with TK-10 renal it was over 100 µM; in the assay with HCT-116 colon, 29.8 µM; in the assay with CAKI-1 renal, 54.4 µM.
`Nc1cc2c3c(cccc3c1)C(=O)N(CCN1CCCC1)C2=O`: the GI50 in the assay with MCF7 breast was 1.18 µM; in the assay on SR leukemia, 0.979 µM; in the assay on RXF 393 renal, 6.43 µM; in the assay with KM12 colon it was 3.66 µM; in the assay with CCRF-CEM leukemia, 3.88 µM; in the assay on UACC-257 melanoma, 3.35 µM. The GI50 is 1.68 µM with COLO 205 colon, 5.49 µM in the assay with TK-10 renal, 2.73 µM in the assay on HCT-116 colon and 1.43 µM in the assay with CAKI-1 renal. Also, the TGI with MCF7 breast was 35.6 µM; in the assay with SR leukemia it was over 22.4 µM; with RXF 393 renal it was 42.3 µM; in the assay with KM12 colon it was 51.2 µM; with CCRF-CEM leukemia it was over 35.6 µM; with UACC-257 melanoma it was 24.5 µM. Besides, the TGI was 10.3 µM in the assay with COLO 205 colon, 33.7 µM in the assay with TK-10 renal, over 35 µM in the assay on HCT-116 colon and 5.83 µM in the assay with CAKI-1 renal.
On to `O=C(Nc1sc2c(c1C(=O)O)CCCC2)c1ccco1`, for which the GI50 in the assay on MCF7 breast was 26.5 µM; in the assay on SR leukemia it was 46.2 µM; in the assay on RXF 393 renal, over 50 µM; in the assay with KM12 colon it was 29.5 µM; in the assay with CCRF-CEM leukemia, over 50 µM; in the assay with UACC-257 melanoma, over 50 µM. Besides, the GI50 with COLO 205 colon is 44.2 µM; in the assay on TK-10 renal, over 50 µM; in the assay with HCT-116 colon it was 31 µM; in the assay on CAKI-1 renal, 44.1 µM. Moreover, the TGI with MCF7 breast, in the assay on SR leukemia, in the assay with RXF 393 renal, in the assay on KM12 colon, with CCRF-CEM leukemia and with UACC-257 melanoma was over 50 µM throughout. Also, the TGI in the assay on COLO 205 colon, in the assay on TK-10 renal, with HCT-116 colon and in the assay on CAKI-1 renal was over 50 µM each time.
On to `CC(C)Cc1cnc(CC(C)C)c(=O)[nH]1`, for which the TGI in the assay on MCF7 breast, in the assay on SR leukemia, in the assay with RXF 393 renal, in the assay on KM12 colon, in the assay on CCRF-CEM leukemia and in the assay on UACC-257 melanoma was over 100 µM in each case. The TGI in the assay on COLO 205 colon, with TK-10 renal, with HCT-116 colon and in the assay with CAKI-1 renal was over 100 µM in each case.
As for `COc1cccc2c1C(=O)c1c(O)c3c(c(O)c1C2=O)C[C@@](O)(C(C)=O)CC3OC1CC(OC2CC(N)C(O)C(C)O2)C(O)C(C)O1` (stereo not given in full), the TGI is over 59.6 µM with MCF7 breast; over 70 µM in the assay with SR leukemia; over 100 µM in the assay with RXF 393 renal; over 100 µM in the assay on KM12 colon; 44 µM in the assay on CCRF-CEM leukemia; over 100 µM with UACC-257 melanoma. For the same molecule, the TGI in the assay on COLO 205 colon, in the assay on TK-10 renal, in the assay on HCT-116 colon and with CAKI-1 renal was over 100 µM throughout.
`CCCC(=O)O[C@]1(C)CC[C@@H]2[C@H]3[C@@H]1[C@@H]1C[C@@](C)(O)[C@H](OC)CC[C@](C)(OC(=O)[C@@H]2C)[C@H]3O1`: the GI50 in the assay with MCF7 breast was 18.5 µM; in the assay on SR leukemia, 14.9 µM; in the assay with RXF 393 renal, 23.2 µM; in the assay with KM12 colon, 19.4 µM; with CCRF-CEM leukemia, 2.35 µM; in the assay on UACC-257 melanoma, 24.5 µM. Moreover, the GI50 in the assay on COLO 205 colon was 33.7 µM; with TK-10 renal, 28.8 µM; in the assay on HCT-116 colon it was 36.5 µM; in the assay with CAKI-1 renal it was 18.6 µM. The TGI was found to be 33.7 µM in the assay on MCF7 breast; 28.1 µM in the assay on SR leukemia; 72.9 µM in the assay on RXF 393 renal; 44.7 µM in the assay with KM12 colon; 13.9 µM in the assay with CCRF-CEM leukemia; 60.7 µM in the assay on UACC-257 melanoma. In addition, the TGI was over 100 µM with COLO 205 colon, 87.4 µM in the assay with TK-10 renal, over 100 µM in the assay with HCT-116 colon and 39.8 µM in the assay with CAKI-1 renal.
Regarding `CN1CCN(C2=NC(=O)/C(=C\c3ccc(N(C)C)cc3)S2)CC1`, the GI50 in the assay on MCF7 breast was over 100 µM; in the assay on SR leukemia, 57.4 µM; in the assay on RXF 393 renal, 45.4 µM; in the assay on KM12 colon, over 100 µM; with CCRF-CEM leukemia, 38.4 µM; in the assay with UACC-257 melanoma, over 100 µM. In addition, the GI50 with COLO 205 colon, in the assay on TK-10 renal, in the assay on HCT-116 colon and in the assay with CAKI-1 renal was over 100 µM in each case. Besides, the TGI in the assay with MCF7 breast, with SR leukemia, in the assay with RXF 393 renal, in the assay with KM12 colon, in the assay on CCRF-CEM leukemia and with UACC-257 melanoma was over 100 µM in each case. Moreover, the TGI in the assay with COLO 205 colon, with TK-10 renal, in the assay on HCT-116 colon and with CAKI-1 renal was over 100 µM throughout.
With `COc1ccc(-c2ccc(OC)c(OC)c2OC)cc1`, the GI50 in the assay with MCF7 breast is 1.77 µM; in the assay with SR leukemia it was 0.572 µM; in the assay on RXF 393 renal, 2.83 µM; in the assay with KM12 colon it was 0.767 µM; in the assay on CCRF-CEM leukemia it was 2.19 µM; in the assay with UACC-257 melanoma it was over 73.8 µM. In addition, the GI50 in the assay with COLO 205 colon is 1.74 µM; with TK-10 renal it was 5.1 µM; in the assay with HCT-116 colon it was 1.13 µM; with CAKI-1 renal, 1.77 µM. In addition, the TGI in the assay on MCF7 breast is over 100 µM; with SR leukemia it was over 100 µM; in the assay on RXF 393 renal, over 100 µM; in the assay on KM12 colon, over 51.8 µM; with CCRF-CEM leukemia, over 100 µM; in the assay with UACC-257 melanoma, over 100 µM. Besides, the TGI with COLO 205 colon was 6.83 µM; with TK-10 renal it was over 100 µM; with HCT-116 colon, 32.6 µM; with CAKI-1 renal it was over 100 µM.

These data come from PubChem BioAssay (NCI).
